The source of these data is the supplement of paper PMC10307832.

What all share (experiment): relative viability (nuclei count vs DMSO), 5 days (fraction); higher = more cells survive
Compound in the assay “4EGI-1 + Decitabine”: O=C(O)C(Cc1ccccc1[N+](=O)[O-])=NNc1nc(-c2ccc(Cl)c(Cl)c2)cs1 (mixture of isomers) [4EGI-1] + Nc1ncn([C@H]2C[C@H](O)[C@@H](CO)O2)c(=O)n1 [Decitabine] (partner 2 µM)
The method in brief:
(§1)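 Relative viability was taken as the ratio of nuclei in treated wells to nuclei in vehicle wells. Lung cancer cell lines in 1536-well plates received compounds by pin tool one day after seeding, either one drug alone or a fixed anchor-drug dose plus five library-drug doses (not always all listed) in √10 steps. Nuclei were counted on 4× images after 5 days of treatment, and values are medians of duplicate plates.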

Compound in the assay “4EGI-1 + Dasatinib”: O=C(O)C(Cc1ccccc1[N+](=O)[O-])=NNc1nc(-c2ccc(Cl)c(Cl)c2)cs1 (mixture of isomers) [4EGI-1] + Cc1nc(Nc2ncc(C(=O)Nc3c(C)cccc3Cl)s2)cc(N2CCN(CCO)CC2)n1 [Dasatinib] (partner 0.075 µM)
The gist of the method: as §1

Compound in the assay “4EGI-1 + Vorinostat”: O=C(O)C(Cc1ccccc1[N+](=O)[O-])=NNc1nc(-c2ccc(Cl)c(Cl)c2)cs1 (mixture of isomers) [4EGI-1] + O=C(CCCCCCC(=O)Nc1ccccc1)NO [Vorinostat] (partner 1 µM)
The method in brief:
as §1

Compound in the assay “XMD8-85 + Vorinostat”: CN1CCN(CC1)C2=CC(=C(C=C2)NC3=NC=C4C(=N3)N(C5=CC=CC=C5C(=O)N4C)C)OC [XMD8-85] + O=C(CCCCCCC(=O)Nc1ccccc1)NO [Vorinostat] (partner 1 µM)
The method in brief: as §1

HCC-15: the relative viability turned out to be 0.89 with 4EGI-1 + Decitabine (first compound 0.5 µM); 0.723 with 4EGI-1 + Decitabine (first compound 1.581 µM); 0.675 with 4EGI-1 + Decitabine (first compound 5 µM); 0.527 in the assay with 4EGI-1 + Decitabine (first compound 15.81 µM); 0.217 in the assay with 4EGI-1 + Decitabine (first compound 50 µM); 0.642 with 4EGI-1 + Dasatinib (first compound 0.5 µM). Moreover, the relative viability in the assay with 4EGI-1 + Dasatinib (first compound 5 µM) was 0.612; in the assay with 4EGI-1 + Dasatinib (first compound 15.81 µM), 0.511; with 4EGI-1 + Dasatinib (first compound 50 µM), 0.308; in the assay with 4EGI-1 + Vorinostat (first compound 0.5 µM), 0.863; in the assay with 4EGI-1 + Vorinostat (first compound 1.581 µM), 0.812; with 4EGI-1 + Vorinostat (first compound 5 µM) it was 0.809. For the same cell line, the relative viability was found to be 0.686 with 4EGI-1 + Vorinostat (first compound 15.81 µM); 0.513 in the assay with 4EGI-1 + Vorinostat (first compound 50 µM); 0.896 with XMD8-85 + Vorinostat (first compound 0.08 µM); 0.819 with XMD8-85 + Vorinostat (first compound 0.253 µM); 0.806 with XMD8-85 + Vorinostat (first compound 0.8 µM); 0.792 with XMD8-85 + Vorinostat (first compound 2.53 µM). For the same cell line, the relative viability with XMD8-85 + Vorinostat (first compound 8 µM) is 0.586.
On to NCI-H1650, for which the relative viability in the assay with 4EGI-1 + Decitabine (first compound 0.5 µM) was 0.37; with 4EGI-1 + Decitabine (first compound 5 µM), 0.421; in the assay with 4EGI-1 + Decitabine (first compound 15.81 µM) it was 0.256; in the assay with 4EGI-1 + Decitabine (first compound 50 µM), 0.293; with 4EGI-1 + Dasatinib (first compound 0.5 µM) it was 0.307; in the assay with 4EGI-1 + Dasatinib (first compound 5 µM) it was 0.364. In addition, the relative viability in the assay with 4EGI-1 + Dasatinib (first compound 15.81 µM) was 0.219; with 4EGI-1 + Dasatinib (first compound 50 µM), 0.136; with 4EGI-1 + Vorinostat (first compound 0.5 µM), 0.637; with 4EGI-1 + Vorinostat (first compound 5 µM), 0.649; with 4EGI-1 + Vorinostat (first compound 15.81 µM), 0.356; with 4EGI-1 + Vorinostat (first compound 50 µM), 0.157. Further, the relative viability came out at 0.674 in the assay with XMD8-85 + Vorinostat (first compound 0.08 µM); 0.596 in the assay with XMD8-85 + Vorinostat (first compound 0.253 µM); 0.594 with XMD8-85 + Vorinostat (first compound 0.8 µM); 0.578 with XMD8-85 + Vorinostat (first compound 2.53 µM); 0.253 with XMD8-85 + Vorinostat (first compound 8 µM).
COR-L23: the relative viability in the assay with 4EGI-1 + Decitabine (first compound 0.5 µM) turned out to be 0.473; with 4EGI-1 + Decitabine (first compound 1.581 µM), 0.343; with 4EGI-1 + Decitabine (first compound 5 µM), 0.474; with 4EGI-1 + Decitabine (first compound 15.81 µM), 0.291; with 4EGI-1 + Decitabine (first compound 50 µM) it was 0.171; in the assay with 4EGI-1 + Dasatinib (first compound 0.5 µM) it was 0.578. In addition, the relative viability in the assay with 4EGI-1 + Dasatinib (first compound 1.581 µM) worked out at 0.207; with 4EGI-1 + Dasatinib (first compound 5 µM) it was 0.483; with 4EGI-1 + Dasatinib (first compound 15.81 µM), 0.307; in the assay with 4EGI-1 + Dasatinib (first compound 50 µM), 0.141; with 4EGI-1 + Vorinostat (first compound 0.5 µM), 0.672; with 4EGI-1 + Vorinostat (first compound 1.581 µM) it was 0.261. The relative viability with 4EGI-1 + Vorinostat (first compound 5 µM) is 0.618; with 4EGI-1 + Vorinostat (first compound 15.81 µM), 0.345; with 4EGI-1 + Vorinostat (first compound 50 µM), 0.103; with XMD8-85 + Vorinostat (first compound 0.08 µM) it was 0.413; in the assay with XMD8-85 + Vorinostat (first compound 0.253 µM), 0.486; with XMD8-85 + Vorinostat (first compound 0.8 µM), 0.558. Besides, the relative viability with XMD8-85 + Vorinostat (first compound 2.53 µM) came to 0.516; in the assay with XMD8-85 + Vorinostat (first compound 8 µM), 0.236.
Regarding PC-3 [JPC-3], the relative viability was 0.95 with 4EGI-1 + Decitabine (first compound 0.5 µM); 0.771 in the assay with 4EGI-1 + Decitabine (first compound 5 µM); 0.498 in the assay with 4EGI-1 + Decitabine (first compound 15.81 µM); 0.53 in the assay with 4EGI-1 + Decitabine (first compound 50 µM); 1.03 with 4EGI-1 + Dasatinib (first compound 0.5 µM); 0.978 with 4EGI-1 + Dasatinib (first compound 1.581 µM). Further, the relative viability is 0.893 with 4EGI-1 + Dasatinib (first compound 5 µM); 0.937 in the assay with 4EGI-1 + Dasatinib (first compound 50 µM); 0.753 with 4EGI-1 + Vorinostat (first compound 0.5 µM); 0.867 with 4EGI-1 + Vorinostat (first compound 5 µM); 0.418 with 4EGI-1 + Vorinostat (first compound 15.81 µM); 0.307 with 4EGI-1 + Vorinostat (first compound 50 µM). Further, the relative viability in the assay with XMD8-85 + Vorinostat (first compound 0.08 µM) came out at 0.963; in the assay with XMD8-85 + Vorinostat (first compound 0.253 µM) it was 0.875; in the assay with XMD8-85 + Vorinostat (first compound 0.8 µM) it was 0.68; with XMD8-85 + Vorinostat (first compound 2.53 µM) it was 0.912; with XMD8-85 + Vorinostat (first compound 8 µM), 0.465.
As to A-427, the relative viability in the assay with 4EGI-1 + Decitabine (first compound 0.5 µM) is 0.575; in the assay with 4EGI-1 + Decitabine (first compound 5 µM), 0.592; with 4EGI-1 + Decitabine (first compound 15.81 µM), 0.513; in the assay with 4EGI-1 + Decitabine (first compound 50 µM), 0.336; with 4EGI-1 + Dasatinib (first compound 0.5 µM) it was 0.797; with 4EGI-1 + Dasatinib (first compound 1.581 µM), 0.513. Further, the relative viability with 4EGI-1 + Dasatinib (first compound 5 µM) turned out to be 0.527; in the assay with 4EGI-1 + Dasatinib (first compound 15.81 µM), 0.46; with 4EGI-1 + Dasatinib (first compound 50 µM), 0.159; with 4EGI-1 + Vorinostat (first compound 0.5 µM) it was 0.865; with 4EGI-1 + Vorinostat (first compound 5 µM) it was 0.882; with 4EGI-1 + Vorinostat (first compound 15.81 µM), 0.646. The relative viability is 0.2 with 4EGI-1 + Vorinostat (first compound 50 µM); 0.89 in the assay with XMD8-85 + Vorinostat (first compound 0.08 µM); 0.866 with XMD8-85 + Vorinostat (first compound 0.253 µM); 0.911 in the assay with XMD8-85 + Vorinostat (first compound 0.8 µM); 0.865 in the assay with XMD8-85 + Vorinostat (first compound 2.53 µM); 0.659 with XMD8-85 + Vorinostat (first compound 8 µM).
For NCI-H1755, the relative viability with 4EGI-1 + Decitabine (first compound 0.5 µM) turned out to be 0.718; with 4EGI-1 + Decitabine (first compound 1.581 µM), 0.676; with 4EGI-1 + Decitabine (first compound 5 µM), 0.654; in the assay with 4EGI-1 + Decitabine (first compound 15.81 µM), 0.697; with 4EGI-1 + Decitabine (first compound 50 µM), 0.618; with 4EGI-1 + Dasatinib (first compound 0.5 µM), 0.503. The relative viability in the assay with 4EGI-1 + Dasatinib (first compound 1.581 µM) was 0.428; in the assay with 4EGI-1 + Dasatinib (first compound 5 µM), 0.424; in the assay with 4EGI-1 + Dasatinib (first compound 15.81 µM), 0.412; with 4EGI-1 + Dasatinib (first compound 50 µM), 0.288; with 4EGI-1 + Vorinostat (first compound 0.5 µM), 0.818; in the assay with 4EGI-1 + Vorinostat (first compound 1.581 µM) it was 0.749. Besides, the relative viability with 4EGI-1 + Vorinostat (first compound 5 µM) turned out to be 0.891; in the assay with 4EGI-1 + Vorinostat (first compound 15.81 µM), 0.853; with 4EGI-1 + Vorinostat (first compound 50 µM) it was 0.626; with XMD8-85 + Vorinostat (first compound 0.08 µM) it was 0.8; with XMD8-85 + Vorinostat (first compound 0.253 µM), 0.799; with XMD8-85 + Vorinostat (first compound 0.8 µM) it was 0.695. Further, the relative viability with XMD8-85 + Vorinostat (first compound 2.53 µM) came out at 0.761; with XMD8-85 + Vorinostat (first compound 8 µM), 0.692.
As for NCI-H2347, the relative viability is 0.68 with 4EGI-1 + Decitabine (first compound 0.5 µM); 0.649 with 4EGI-1 + Decitabine (first compound 1.581 µM); 0.569 with 4EGI-1 + Decitabine (first compound 5 µM); 0.586 in the assay with 4EGI-1 + Decitabine (first compound 15.81 µM); 0.543 with 4EGI-1 + Decitabine (first compound 50 µM); 0.339 with 4EGI-1 + Dasatinib (first compound 0.5 µM). Further, the relative viability with 4EGI-1 + Dasatinib (first compound 5 µM) is 0.318; in the assay with 4EGI-1 + Dasatinib (first compound 15.81 µM), 0.305; with 4EGI-1 + Dasatinib (first compound 50 µM) it was 0.336; with 4EGI-1 + Vorinostat (first compound 0.5 µM), 0.724; with 4EGI-1 + Vorinostat (first compound 1.581 µM), 0.59; in the assay with 4EGI-1 + Vorinostat (first compound 5 µM), 0.689. The relative viability in the assay with 4EGI-1 + Vorinostat (first compound 15.81 µM) amounted to 0.589; in the assay with 4EGI-1 + Vorinostat (first compound 50 µM), 0.36; in the assay with XMD8-85 + Vorinostat (first compound 0.08 µM), 0.603; with XMD8-85 + Vorinostat (first compound 0.253 µM), 0.564; with XMD8-85 + Vorinostat (first compound 0.8 µM), 0.59; with XMD8-85 + Vorinostat (first compound 2.53 µM), 0.533. Besides, the relative viability in the assay with XMD8-85 + Vorinostat (first compound 8 µM) amounted to 0.504.
For NCI-H2170, the relative viability came to 0.502 with 4EGI-1 + Decitabine (first compound 0.5 µM); 0.449 with 4EGI-1 + Decitabine (first compound 1.581 µM); 0.459 with 4EGI-1 + Decitabine (first compound 5 µM); 0.441 in the assay with 4EGI-1 + Decitabine (first compound 15.81 µM); 0.282 with 4EGI-1 + Decitabine (first compound 50 µM); 0.676 in the assay with 4EGI-1 + Dasatinib (first compound 0.5 µM). The relative viability in the assay with 4EGI-1 + Dasatinib (first compound 1.581 µM) came to 0.504; with 4EGI-1 + Dasatinib (first compound 5 µM) it was 0.628; with 4EGI-1 + Dasatinib (first compound 15.81 µM), 0.473; in the assay with 4EGI-1 + Dasatinib (first compound 50 µM), 0.173; in the assay with 4EGI-1 + Vorinostat (first compound 0.5 µM), 0.936; with 4EGI-1 + Vorinostat (first compound 1.581 µM), 0.749. Besides, the relative viability is 0.842 in the assay with 4EGI-1 + Vorinostat (first compound 5 µM); 0.699 with 4EGI-1 + Vorinostat (first compound 15.81 µM); 0.585 with 4EGI-1 + Vorinostat (first compound 50 µM); 0.914 in the assay with XMD8-85 + Vorinostat (first compound 0.08 µM); 0.8 with XMD8-85 + Vorinostat (first compound 0.253 µM); 0.792 with XMD8-85 + Vorinostat (first compound 0.8 µM). In addition, the relative viability with XMD8-85 + Vorinostat (first compound 2.53 µM) came to 0.877; with XMD8-85 + Vorinostat (first compound 8 µM), 0.715.
